Laboratory results as given in article PMC11396129, “Oxindole–benzothiazole hybrids as CDK2 inhibitors and anticancer agents: design, synthesis and biological evaluation” (BMC Chemistry, 2024).

How the values were obtained:
[1] = system: DU145 prostate cancer cell line; test: Cell cycle analysis (PI flow cytometry); assay type: cell-based, human; settings: DU145, 9o at its GI50 concentration, 48h
Description: Concurrently, there is a decline in the % of cells in the G2 phase from 22.20% in control cells to 20.94% in 9o treated cells.
(§1) DU145 cancer cell line derived from prostate cancer was treated with the oxindole–benzothiazole conjugate 9o at its GI50. This was followed by treatment of cells according to the reported procedure and the percentage of cells in each stage of the cell cycle was identified and the percentage of cells in the apoptotic and necrotic stages were detected (for further details see additional file 1: analysis of cell cycle distribution; apoptosis assay).
(§2) 6. Analysis of cell cycle distribution
(§3) DU-145: Prostate cancer was obtained from Nawah Scientific Inc., (Mokatam, Cairo, Egypt).
Cells were maintained in DMEM media supplemented with […] of streptomycin, 100 units/mL of penicillin and 10% of heat-inactivated fetal bovine serum in humidified, 5% (v/v) CO2 atmosphere at 37 °C. After treatment with 9o for 48h, cells (10^5 cells) are collected by trypsinization and washed twice with ice-cold PBS (pH 7.4). Cells are re-suspended in two milliliters of 60% ice-cold ethanol and incubated at 4 °C for 1h for fixation. Fixed cells are washed twice again with PBS (pH 7.4) and re-suspended in 1 mL of PBS containing 50 μg/mL RNAase A and 10 μg/mL propidium iodide (PI). After 20 min of incubation in dark at 37 °C, cells are analyzed for DNA contents using flow cytometry analysis using FL2 (λex/em 535/617 nm) signal detector (ACEA Novocyte™ flowcytometer, ACEA Biosciences Inc., San Diego, CA, USA). For each sample, 12,000 events are acquired. […]

FGFR-1 = FGFR-1 (Homo sapiens, UniProt P11362); test: Kinase inhibitory activity on FGFR-1; assay type: biochemical; settings: mean of two independent experiments ± SD
Sequence of FGFR-1 (P11362 22-822, species assumed): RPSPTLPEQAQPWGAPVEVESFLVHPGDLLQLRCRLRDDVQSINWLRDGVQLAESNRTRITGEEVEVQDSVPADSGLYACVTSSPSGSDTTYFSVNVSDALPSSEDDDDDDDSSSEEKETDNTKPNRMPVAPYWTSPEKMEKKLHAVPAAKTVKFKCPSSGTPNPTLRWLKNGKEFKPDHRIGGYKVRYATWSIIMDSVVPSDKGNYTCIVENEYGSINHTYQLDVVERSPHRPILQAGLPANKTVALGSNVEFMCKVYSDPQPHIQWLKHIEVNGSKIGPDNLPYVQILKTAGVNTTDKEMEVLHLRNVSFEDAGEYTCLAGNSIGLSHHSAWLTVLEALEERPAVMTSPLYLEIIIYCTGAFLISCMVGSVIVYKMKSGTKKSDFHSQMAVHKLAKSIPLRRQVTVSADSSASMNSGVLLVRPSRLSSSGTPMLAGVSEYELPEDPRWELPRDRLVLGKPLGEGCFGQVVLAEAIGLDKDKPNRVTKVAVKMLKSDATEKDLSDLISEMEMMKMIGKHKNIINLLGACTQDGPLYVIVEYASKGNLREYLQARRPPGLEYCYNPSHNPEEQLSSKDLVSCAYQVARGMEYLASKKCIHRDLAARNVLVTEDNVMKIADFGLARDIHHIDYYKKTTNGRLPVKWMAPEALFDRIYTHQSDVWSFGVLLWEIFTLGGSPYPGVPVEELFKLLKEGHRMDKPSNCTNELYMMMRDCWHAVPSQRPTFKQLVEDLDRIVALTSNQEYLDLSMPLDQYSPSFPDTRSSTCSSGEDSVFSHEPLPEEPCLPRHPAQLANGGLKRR

[2] = system: DU145 prostate cancer cell line; test: Apoptosis assay (Annexin V-FITC/PI flow cytometry); assay type: cell-based, human; settings: DU145, 9o at its GI50 concentration, 48h
Description: as §1, §2, §3
Cells were maintained in DMEM media supplemented with […] of streptomycin, 100 units/mL of penicillin and 10% of heat-inactivated fetal bovine serum in humidified, 5% (v/v) […]
CO2 atmosphere at 37 °C. […]
Apoptosis and necrosis cell populations are determined using Annexin V-FITC apoptosis detection kit (Abcam Inc., Cambridge Science Park, Cambridge, UK) coupled with 2 fluorescent channels flowcytometry. After treatment with test compounds for 48h, cells (10^5 cells) are collected by trypsinization and washed twice with ice-cold PBS (pH 7.4). Then, cells are incubated in dark with 0.5 ml of Annexin V-FITC/PI solution for 30 min in dark at room temperature according to manufacturer protocol. After staining, cells are injected via ACEA Novocyte™ flowcytometer (ACEA Biosciences Inc., San Diego, CA, USA) and analysed for FITC and PI fluorescent signals using FL1 and FL2 signal detector, respectively […]
events are acquired and positive FITC and/or PI cells are quantified by quadrant analysis and […]

## COc1ccc2c(c1)C(=NNC(=O)COc1cc(-c3nc4ccccc4s3)ccc1OC)C(=O)N2 [Compound 9o, 2-(5-(Benzo[d]thiazol-2-yl)-2-methoxyphenoxy)-N′-(5-methoxy-2-oxoindolin-3-ylidene)acetohydrazide]
[1]
  %G0/G1: 61.40%
  %G2/M: 20.94%
  %S: 17.66%
  %Sub-G1: 0.41%
FGFR-1
  IC50: > 10 µM
[2]
  % early apoptotic cells (Q2–4): 0.28%
  % of cells in the late apoptotic stage (Q2–2): 5.02%
  % of cells in the necrotic stage (Q2–1): 2.63%
  % viable cells (Q2–3): 92.07%
